According to patent US8524750B2, “(Pyrazol-3-yl)-1,3,4-thiadiazol-2-amine and (pyrazol-3-yl)-1,3,4-thiazol-2-amine compounds” (Glaxo Group Limited, priority 2009, dated 2013):
≈ marks a conversion by molar mass, not a printed value.

Columns and labels:
[1] = target: T1, Mycobacterium tuberculosis InhA (Mycobacterium tuberculosis, UniProt P9WGR1); assay: Mycobacterium tuberculosis InhA Inhibition Assay (Enzyme Assay); assay type: biochemical; conditions: IC50 value, 5 nM InhA, 50 μM DDCoA, 50 μM NADH, PIPES buffer pH 6.8; initial velocities of NADH consumption
T1 construct: made in house; host or cells: E. coli
How it was run: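 Recombinant Mtb InhA (E. coli-expressed), 5 nM, with 50 μM dodecenoyl-CoA and 50 μM NADH in 30 mM PIPES pH 6.8, 0.05% BSA; reaction started with enzyme. NADH fluorescence (ex 340/em 480 nm) followed 20 min at room temperature; IC50 from initial velocities of NADH consumption.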

[2] = system: Mycobacterium tuberculosis H37Rv; assay: Mycobacterium tuberculosis H37Rv Inhibition Assay (Whole Cell Assay); assay type: cell-based; conditions: ATCC 25618 / H37Rv, H37Rv strain (ATCC25618), Middlebrook 7H9, six days at 37° C., resazurin fluorescence after 48 hours

T1 sequence (P9WGR1 whole entry, looked up): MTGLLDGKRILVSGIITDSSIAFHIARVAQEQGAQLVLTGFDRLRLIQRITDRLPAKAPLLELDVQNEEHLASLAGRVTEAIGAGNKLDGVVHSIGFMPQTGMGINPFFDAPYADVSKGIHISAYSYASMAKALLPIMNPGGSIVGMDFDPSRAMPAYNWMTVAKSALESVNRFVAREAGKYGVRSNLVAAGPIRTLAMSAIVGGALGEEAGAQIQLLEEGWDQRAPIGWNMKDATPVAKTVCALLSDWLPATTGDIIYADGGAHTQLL

Row | Structure (SMILES) | IC50 [1] [nM] | MIC [2] [µM]
1 | COC(c1nc(C)cs1)c1nnc(Nc2ccn(Cc3c(F)cccc3F)n2)s1 (centres unmarked) [Example 73, N-{1-[(2,6-difluorophenyl)methyl]-1H-pyrazol-3-yl}-5-[(methyloxy)(4-methyl-1,3-thiazol-2-yl)methyl]-1,3,4-thiadiazol-2-amine] | 115 to 230 | > 10
2 | Cc1csc(C(C)(C)c2nnc(Nc3ccn(Cc4c(F)cccc4Cl)n3)s2)n1 [Example 74, N-{1-[(2-chloro-6-fluorophenyl)methyl]-1H-pyrazol-3-yl}-5-[1-methyl-1-(4-methyl-1,3-thiazol-2-yl)ethyl]-1,3,4-thiadiazol-2-amine] | < 111 | 1 to 4 (≈ 0.449 to 1.8 µg/mL)
3 | Cc1cc(C)n(C(C)c2nnc(Nc3ccn(Cc4ccc(F)cc4)n3)s2)n1 (centres unmarked) [Example 75, 5-[1-(3,5-dimethyl-1H-pyrazol-1-yl)ethyl]-N-{1-[(4-fluorophenyl)methyl]-1H-pyrazol-3-yl}-1,3,4-thiadiazol-2-amine] | 126 to 252 | > 10
4 | Cc1ccn(C(C)c2nnc(Nc3ccn(Cc4c(F)cccc4F)n3)s2)n1 (centres unmarked) [Example 76, N-{1-[(2,6-difluorophenyl)methyl]-1H-pyrazol-3-yl}-5-[1-(3-methyl-1H-pyrazol-1-yl)ethyl]-1,3,4-thiadiazol-2-amine] | < 125 | ≤ 1
5 | Cc1cc(C)n(C(C)c2nnc(Nc3ccn(Cc4c(F)ccc(F)c4F)n3)s2)n1 (centres unmarked) [Example 77, 5-[1-(3,5-dimethyl-1H-pyrazol-1-yl)ethyl]-N-{1-[(2,3,6-trifluorophenyl)methyl]-1H-pyrazol-3-yl}-1,3,4-thiadiazol-2-amine] | < 115 | ≤ 1
6 | Cc1csc(C(C)(O)c2nnc(Nc3ccn(Cc4cccc(Cl)c4F)n3)s2)n1 (centres unmarked) [Example 79, 1-[5-({1-[(3-chloro-2-fluorophenyl)methyl]-1H-pyrazol-3-yl}amino)-1,3,4-thiadiazol-2-yl]-1-(4-methyl-1,3-thiazol-2-yl)ethanol] | < 111 | ≤ 1
7 | Cc1csc(C(C)(O)c2nnc(Nc3ccn(Cc4cccc(F)c4F)n3)s2)n1 (centres unmarked) [Example 80, 1-[5-({1-[(2,3-difluorophenyl)methyl]-1H-pyrazol-3-yl}amino)-1,3,4-thiadiazol-2-yl]-1-(4-methyl-1,3-thiazol-2-yl)ethanol] | < 115 | ≤ 1
8 | Cc1cc(C)n(C(C)c2nnc(Nc3ccn(Cc4c(F)ccc(C)c4F)n3)s2)n1 (centres unmarked) [Example 81, N-{1-[(2,6-difluoro-3-methylphenyl)methyl]-1H-pyrazol-3-yl}-5-[1-(3,5-dimethyl-1H-pyrazol-1-yl)ethyl]-1,3,4-thiadiazol-2-amine] | < 116 | ≤ 1
9 | CCOc1c(F)ccc(F)c1Cn1ccc(Nc2nnc(C(C)n3nc(C)cc3C)s2)n1 (centres unmarked) [Example 82, 5-[1-(3,5-dimethyl-1H-pyrazol-1-yl)ethyl]-N-(1-{[2-(ethyloxy)-3,6-difluorophenyl]methyl}-1H-pyrazol-3-yl)-1,3,4-thiadiazol-2-amine] | < 109 | 4 to 10 (≈ 1.84 to 4.6 µg/mL)
10 | Cc1csc(C(C)(O)c2nnc(Nc3ccn(Cc4cccc(C)c4F)n3)s2)n1 (centres unmarked) [Example 83, 1-[5-({1-[(2-fluoro-3-methylphenyl)methyl]-1H-pyrazol-3-yl}amino)-1,3,4-thiadiazol-2-yl]-1-(4-methyl-1,3-thiazol-2-yl)ethanol] | < 116 | ≤ 1
11 | Cc1csc(C(C)(O)c2nnc(Nc3ccn(Cc4c(F)ccc(C)c4F)n3)s2)n1 (centres unmarked) [Example 84, 1-[5-({1-[(2,6-difluoro-3-methylphenyl)methyl]-1H-pyrazol-3-yl}amino)-1,3,4-thiadiazol-2-yl]-1-(4-methyl-1,3-thiazol-2-yl)ethanol] | < 111 | ≤ 1
12 | Cc1csc(C(C)c2nnc(Nc3ccn(Cc4c(F)ccc(C)c4F)n3)s2)n1 (centres unmarked) [Example 85, N-{1-[(2,6-difluoro-3-methylphenyl)methyl]-1H-pyrazol-3-yl}-5-[1-(4-methyl-1,3-thiazol-2-yl)ethyl]-1,3,4-thiadiazol-2-amine] | < 116 | 1 to 4 (≈ 0.433 to 1.73 µg/mL)
13 | Cc1ccn(C(C)c2nnc(Nc3ccn(Cc4c(F)ccc(C)c4F)n3)s2)n1 (centres unmarked) [Example 86, N-{1-[(2,6-difluoro-3-methylphenyl)methyl]-1H-pyrazol-3-yl}-5-[1-(3-methyl-1H-pyrazol-1-yl)ethyl]-1,3,4-thiadiazol-2-amine] | < 120 | ≤ 1
14 | Cc1cc(C)n(C(C)c2nnc(Nc3ccn(Cc4c(F)ccc(N)c4F)n3)s2)n1 (centres unmarked) [Example 87, N-{1-[(3-amino-2,6-difluorophenyl)methyl]-1H-pyrazol-3-yl}-5-[1-(3,5-dimethyl-1H-pyrazol-1-yl)ethyl]-1,3,4-thiadiazol-2-amine] | < 116 | 1 to 4 (≈ 0.43 to 1.72 µg/mL)
15 | CCOC(=O)Nc1cccc(Cn2ccc(Nc3nnc(C(C)(O)c4nc(C)cs4)s3)n2)c1F (centres unmarked) [Intermediate 121, Ethyl (2-fluoro-3-{[3-({5-[1-hydroxy-1-(4-methyl-1,3-thiazol-2-yl)ethyl]-1,3,4-thiadiazol-2-yl}amino)-1H-pyrazol-1-yl]methyl}phenyl)carbamate] | < 99.3 | 1 to 4 (≈ 0.504 to 2.01 µg/mL)
16 | CC(=O)Nc1ccc(F)c(Cn2ccc(Nc3nnc(C(C)n4nc(C)cc4C)s3)n2)c1F (centres unmarked) [Intermediate 122, N-(3-{[3-({5-[1-(3,5-dimethyl-1H-pyrazol-1-yl)ethyl]-1,3,4-thiadiazol-2-yl}amino)-1H-pyrazol-1-yl]methyl}-2,4-difluorophenyl)acetamide] | 106 to 212 | > 10
